Measurements from ChEMBL document CHEMBL5604064, “ASAP - DENV-1 NS2B-NS3 protease fluorescence dose response” (2024).
Where “and” joins values, the source holds several entries; their conditions need not be identical. Equal values may be shown once.

Target: T1, NS3 protease (dengue virus type 1, UniProt A0A0K0TQ28)
T1 sequence (A0A0K0TQ28 whole entry): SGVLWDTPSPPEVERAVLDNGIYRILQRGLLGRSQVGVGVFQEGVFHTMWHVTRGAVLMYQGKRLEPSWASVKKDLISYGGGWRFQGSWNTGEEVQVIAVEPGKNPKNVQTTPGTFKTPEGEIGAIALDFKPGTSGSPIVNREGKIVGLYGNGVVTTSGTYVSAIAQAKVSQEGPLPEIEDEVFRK
Assay: Functional biochemical assay to identify treatments for viral infectious disease that targets Dengue virus type 1 NS2B-NS3 protease. Utilizing a direct enzyme activity measurement method, reading the fluorescence intensity is used to characterize the relative potency of inhibitors as IC50.
Set-up: species or system Nauru/West Pac/1974

Row | SMILES | IC50
1 | N=C(N)NCCC[C@H](NC(=O)c1nccs1)C(=O)N[C@@H](CCCCN)C(=O)N[C@@H](C(N)=O)c1ccc(OCc2ccc(C(F)(F)F)cc2)cc1 | 920 nM and 1.03 µM (2×) and 1 µM and 926 nM and 1.69 µM and 865 nM
2 | NCCc1csc2cc(C(=O)Nc3ccc4c(c3)CNC4)ccc12 | > 99.5 µM
3 | O=C(Nc1cc2c(cc1Br)CNC2)c1cc(F)cc2[nH]ncc12 | > 99.5 µM
4 | O=C(Nc1ccc2c(c1)CNC2)c1ccc2[nH]ccc2c1 | > 99.5 µM
5 | O=C(Nc1ccc2c(c1)CNC2)c1cc(Cl)cc2ccncc12 | > 99.5 µM
6 | CC(C)c1nnc(-c2nc3c(C(=O)Nc4ccc5c(c4)CNC5)cc(F)cc3[nH]2)s1 | 21.8 µM
7 | O=C(Nc1cc(Cl)cc([C@H](C#CCO)Nc2cccc(-c3nn[nH]n3)c2)c1)OCc1ccccc1 | 12.7 µM
8 | C=CC[C@H](Nc1cc(Cl)cc(NC(=O)OCc2ccccc2)c1)c1cccc(-c2nn[nH]n2)c1 | 6.41 µM
9 | Clc1cc([C@@H]2C[C@H]2c2cccc(C3CCNCC3)c2)c2cn[nH]c2c1 | 5.94 µM
10 | CCc1cc(C(=O)Nc2cccc(-n3nn[nH]c3=O)c2)sc1-c1ccc(Cl)cc1 | 11.4 µM
11 | NCc1ccc(-c2csc3cc(C(=O)Nc4ccc5c(c4)CNC5)ccc23)cc1 | 31.7 µM
12 | O=C(Nc1ccc2c(c1)CNC2)c1cc(F)cc2c1CCC2 | > 99.5 µM
13 | OCC#C[C@H](Nc1ccc2c(c1)CNC2)c1cc(Cl)cc2[nH]ncc12 | 19.4 µM
14 | O=C(Nc1ccc2c(c1)CNC2)c1cc(F)cc2[nH]c(-c3ccccc3)nc12 | 3.67 µM
15 | O=C1Cc2c(cc(F)cc2C(=O)Nc2ccc3c(c2)CNC3)N1 | 36.2 µM
16 | O=C(Nc1cc(Cl)cc(C(=O)Nc2ccc3c(c2)CCNC3)c1)OCc1ccccc1 | 47.7 µM
17 | CNC(=O)[C@H](Nc1cc(CN)cc(-c2nn[nH]n2)c1)c1cc(Cl)cc(C2CC2)c1 | > 99.5 µM
18 | O=C(Nc1ccc2c(c1)CNC2)c1cc(Cl)cc2[nH]ncc12 | 69.2 µM
19 | CC(C)c1cc(Br)cc(C(=O)Nc2ccc3c(c2)CNC3)c1 | > 99.5 µM
20 | O=C(Nc1cc(Cl)cc(C(=O)Nc2ccc3c(c2)CNC3)c1)OCc1ccccc1 | > 99.5 µM
21 | COc1cccc(-c2nc3c(C(=O)Nc4ccc5c(c4)CNC5)cc(F)cc3[nH]2)c1 | 5.41 µM
22 | Cc1ccc(NC(=O)c2cc(Cl)cc(NC(=O)OCc3ccccc3)c2)cc1CN | > 99.5 µM
23 | COc1cc(-c2cc(NC(=O)c3cc(F)cc4[nH]ncc34)cc3c2CNC3)ccn1 | 82.8 µM
24 | O=C(Nc1ccc2c(c1)CNC2)c1cccc2[nH]c(=O)[nH]c12 | 65.5 µM
25 | Cc1ccccc1-c1nc2c(C(=O)Nc3ccc4c(c3)CNC4)cc(F)cc2[nH]1 | 2.19 µM

Row | SMILES | IC50
26 | N#C[C@H](Nc1ccc2c(c1)CNC2)c1cc(Cl)cc2[nH]ncc12 | > 99.5 µM
27 | Cc1c(C(=O)Nc2cc(-c3cccnc3)ccn2)cc(C2CC2)n1C | 4.83 µM
28 | c1cc(C2CCN(Cc3c[nH]c4ccccc34)CC2)c2ccncc2c1 | > 99.5 µM
29 | O=C(Nc1ccc2c(c1)CNC2)c1cccc2nc(O)ccc12 | > 99.5 µM
30 | O=C(Nc1cc(Cl)cc(C(=O)Nc2cccc([C@H]3C[C@H]3C(=O)O)c2)c1)OCc1ccccc1 | 25.2 µM
31 | Clc1cc(CNc2ccc3c(c2)CNC3)c2cn[nH]c2c1 | 30.9 µM
32 | O=C(Nc1ccc2c(c1)CNC2)c1cc(F)c2[nH]ccc2c1 | > 99.5 µM
33 | Cn1cc2cc(Cl)cc(C(=O)Nc3ccc4c(c3)CNC4)c2n1 | > 99.5 µM
34 | O=C(NCC(F)F)[C@H](Nc1ccc2c(c1)CNC2)c1cc(Cl)cc(C2CC2)c1 | > 99.5 µM
35 | CC(C)CNC(=O)c1cc(Cl)ccc1NS(=O)(=O)c1ccc(Oc2ccccc2Cl)cc1 | 14.4 µM
36 | N[C@H]1CC[C@H](c2ccc(NC(=O)c3cc(Cl)cc(NC(=O)OCc4ccccc4)c3)cc2)C1 | 8.49 µM
37 | O=C(Nc1ccc2c(c1)CNC2)c1cc(F)cc2[nH]c(-c3cccc(F)c3)nc12 | 2.69 µM
38 | CNC(=O)[C@H](Nc1cc(CN)cc(C(=O)O)c1)c1cc(Cl)cc(C2CC2)c1 | > 99.5 µM
39 | CC(C)NC(=O)[C@H](Nc1ccc2c(c1)CNC2)c1cc(Cl)cc2[nH]c(-c3ccccc3)nc12 | 7.46 µM and 2.06 µM
40 | O=C(Nc1ccc2c(c1)CNC2)c1cccc2cn[nH]c12 | 49.9 µM
41 | C=CC[C@H]1NCc2cc(NC(=O)c3cc(F)cc4[nH]ncc34)ccc21 | > 99.5 µM
42 | O=C(Nc1ccc2c(c1)CNC2)c1ccc2c(C3=CCNCC3)csc2c1 | 56.3 µM
43 | O=C(NCC(F)F)[C@H](Nc1ccc2c(c1)CNC2)c1cc(F)cc2[nH]ccc12 | > 99.5 µM
44 | Cc1c(C(=O)Nc2cc(CCCN)ccn2)cc(C2CC2)n1C | 25.5 µM
45 | O=C(Nc1ccc2c(c1)CNC2)c1cccc2c(C3CNC3)n[nH]c12 | 92.9 µM
46 | Cc1c(C(=O)Nc2cc([C@H]3CCOC3)ccn2)cc(C2CC2)n1C | > 99.5 µM
47 | Cc1nc2c(C(=O)Nc3ccc4c(c3)CNC4)cc(Cl)cc2[nH]1 | > 99.5 µM
48 | NCc1cccc(NC(=O)c2cc(Cl)cc(NC(=O)OCc3ccccc3)c2)c1 | 51.1 µM
49 | COCCNC(=O)[C@H](Nc1ccc2c(c1)CNC2)c1cc(Cl)cc(C2CC2)c1 | > 99.5 µM
50 | N=C(N)NCCC[C@H](NC(=O)[C@H](Cc1ccc(CN)cc1)NC(=O)c1ccccc1)B(O)O | 0.31 µM and 0.315 µM

Row | SMILES | IC50
51 | N#Cc1ccc(-c2nc3c(C(=O)Nc4ccc5c(c4)CNC5)cc(F)cc3[nH]2)cc1 | 1.68 µM
52 | O=C1Cc2c(cc(Br)cc2C(=O)Nc2ccc3c(c2)CNC3)N1 | 84.6 µM
53 | O=C(Nc1ccc2c(c1)CNC2)c1cc(Br)cc2[nH]c(=O)[nH]c12 | 32.7 µM
54 | O=C(NC1CCOCC1)[C@H](Nc1ccc2c(c1)CNC2)c1cc(Cl)cc2[nH]ncc12 | > 99.5 µM
55 | C=CC[C@H]1NCc2cc(NC(=O)c3cc(Cl)cc4[nH]ncc34)ccc21 | > 99.5 µM
56 | O=C(Nc1ccc2c(c1)CNC2)c1cc(Cl)cc2c1CCC2 | > 99.5 µM
57 | O=C(Nc1ccc2c(c1)CNC2)c1cc(F)cc2[nH]c(-c3ccccc3F)nc12 | 3.86 µM
58 | N#C[C@H](Nc1ccc2c(c1)CNC2)c1cc(Cl)cc(C2CC2)c1 | > 99.5 µM
59 | CNC(=O)[C@H](Nc1cc(Cl)cc(NC(=O)OCc2ccccc2)c1)c1cccc(-c2nn[nH]n2)c1 | 46.5 µM
60 | CN1Cc2ccc(NC(=O)c3cc(Cl)cc4[nH]ncc34)cc2C1 | > 99.5 µM
61 | O=C1Cc2c(cccc2C(=O)Nc2ccc3c(c2)CNC3)N1 | 11.3 µM
62 | O=C(Nc1cc(Br)c2c(c1)CNC2)c1cc(F)cc2[nH]ncc12 | 75.5 µM
63 | Cn1cc(CNC(=O)[C@H](Nc2ccc3c(c2)CNC3)c2cc(Cl)cc(C3CC3)c2)cn1 | > 99.5 µM
64 | Clc1ccc2[nH]cc(Cc3ccc(-c4nn[nH]n4)cc3)c2c1 | 62.9 µM
65 | O=C(Nc1cc2c(c(C3=CCS(=O)(=O)CC3)c1)CNC2)c1cc(F)cc2[nH]ncc12 | > 99.5 µM
66 | O=C(NC1CCOCC1)[C@H](Nc1ccc2c(c1)CNC2)c1cc(Cl)cc(C2CC2)c1 | > 99.5 µM
67 | O=C(Nc1ccc2c(c1)CNC2)c1cc(F)cc2[nH]ncc12 | 68.2 µM
68 | O=C(Nc1cc(Cl)cc(-c2ccc3[nH]c(C(=O)O)cc3c2)c1)OCc1ccccc1 | 5.82 µM
69 | CCOCCNC(=O)[C@H](Nc1ccc2c(c1)CNC2)c1cc(Cl)cc2[nH]ncc12 | > 99.5 µM
70 | Cc1cccc(-c2nc3c(C(=O)Nc4ccc5c(c4)CNC5)cc(F)cc3[nH]2)c1 | 5.92 µM
71 | NCc1cccc(-c2csc3cc(C(=O)Nc4ccc5c(c4)CNC5)ccc23)c1 | 29.9 µM
72 | O=C(Nc1ccc2c(c1)CNC2)c1cc(Br)cc2ccccc12 | 83.7 µM
73 | N#Cc1cccc(-c2nc3c(C(=O)Nc4ccc5c(c4)CNC5)cc(F)cc3[nH]2)c1 | 2.41 µM
74 | Cn1cc(CCc2nc3c(C(=O)Nc4ccc5c(c4)CNC5)cc(Cl)cc3[nH]2)cn1 | 21.6 µM
75 | CC(C)NC(=O)[C@H](Nc1ccc2c(c1)CNC2)c1cc(Cl)cc2[nH]ncc12 | 34.4 µM

Row | SMILES | IC50
76 | NCc1ccc([C@H]2C[C@@H]2c2cc(Cl)cc(NC(=O)OCc3ccccc3)c2)cc1 | 8.89 µM
77 | CNC(=O)[C@H](Nc1ccc2c(c1)CNC2)c1cc(Cl)cc(C2CC2)c1 | > 99.5 µM
78 | NCc1csc2cc(C(=O)Nc3ccc4c(c3)CNC4)ccc12 | 9.99 µM
79 | N#C[C@H](Nc1cccc(-c2nn[nH]n2)c1)c1cc(Cl)cc(NC(=O)OCc2ccccc2)c1 | 10 µM
80 | O=C(Nc1cc(Cl)cc(C(=O)Nc2cccc(-n3nn[nH]c3=O)c2)c1)OCc1ccccc1 | 11.6 µM
81 | N#Cc1cc2c(cc1NC(=O)c1cc(F)cc3[nH]ncc13)CNC2 | 59.7 µM
82 | O=C(Nc1cc2c(c(C3=CCOCC3)c1)CNC2)c1cc(F)cc2[nH]ncc12 | 39.9 µM
83 | O=C(Nc1ccc2c(c1)CNC2)c1cc(Br)cc2[nH]c(-c3ccccc3)nc12 | 1.24 µM
84 | O=C(Nc1ccc2c(c1)CNC2)c1cc(Cl)cc2cc[nH]c12 | > 99.5 µM
85 | O=C(Nc1ccc2c(c1)CNC2)c1cc(Cl)cc2nn(-c3ccccc3)nc12 | 2.69 µM
86 | NCCc1csc2cc(C(=O)Nc3cc([C@H]4CCOC4)ccn3)ccc12 | > 99.5 µM
87 | O=C(Nc1ccc2c(c1)CNC2)c1cccc(-c2cnco2)c1 | 20.3 µM
88 | O=C(Nc1cc(Cl)cc([C@H]2C[C@@H]2c2cccc(C3CCNCC3)c2)c1)OCc1ccccc1 | 6.28 µM
89 | O=C(Nc1ccc2c(c1)CNC2)c1cc(Cl)cc(C(F)(F)F)n1 | 7.25 µM
90 | C=CC[C@H]1NCc2cc(N[C@H](C(=O)NC(C)C)c3cc(Cl)cc4[nH]ncc34)ccc21 | 81.8 µM
91 | O=C(Nc1ccc2c(c1)CNC2)c1cc(Cl)cc2cn[nH]c12 | > 99.5 µM
92 | CC(C)(c1nc2c(C(=O)Nc3ccc4c(c3)CNC4)cc(F)cc2[nH]1)S(C)(=O)=O | 16.1 µM
93 | O=C(Nc1ccc2c(c1)CNC2)c1cc(F)cc2[nH]c(-c3ccc(F)cc3)nc12 | 2.8 µM
94 | O=C(Nc1ccc2c(c1)CNC2)c1ccc2[nH]cc(C3CCNCC3)c2c1 | 31.2 µM
95 | O=C(NCCC1CC1)[C@H](Nc1ccc2c(c1)CNC2)c1cc(Cl)cc(C2CC2)c1 | > 99.5 µM
96 | Cc1[nH]c2ccccc2c1CN1CCC(c2c[nH]c3ncccc23)CC1 | > 99.5 µM
97 | O=C(Nc1ccc2c(c1)CNCC2)c1cc(Cl)cc2[nH]ncc12 | > 99.5 µM
98 | NCc1cccc([C@H]2C[C@@H]2c2cc(Cl)cc(NC(=O)OCc3ccccc3)c2)c1 | 25.3 µM
99 | CC(C)(C)c1cc(Br)cc(C(=O)Nc2ccc3c(c2)CNC3)c1 | > 99.5 µM
